The numbers were not newly measured in patent EP1069913B1, “GELLING OPHTHALMIC COMPOSITIONS CONTAINING XANTHAN GUM” (Alcon Laboratories, Inc., priority 1998, dated 1999), which cites them from elsewhere.

In general, pKa refers to the pH at which an ionisable group is half protonated.

For the data set the following is noted: Maleate: second pKa; Boric Acid: in presence of 3.75 to 4.4 wt.% mannitol.
Regarding `OB(O)O` [Boric Acid], the pKa is recorded as 5.7-5.85.

With `CC(C)(C)NC[C@H](O)COc1nsnc1N1CCOCC1` [Timolol, reference compound], the pKa is 9.21.

For `O=C(O)/C=C\C(=O)O` [Maleate], the pKa is 6.33.
